Where two headings read alike, the source gives them in different places.
Legend:
Type in all cases: binding
[1] = target: T1, HeLa cell extract proteins (Homo sapiens, UniProt Q9UHD8)
T1 construct: endogenous in cells; host or cells: HeLa cell extract
T1 sequence (Q9UHD8 1-586): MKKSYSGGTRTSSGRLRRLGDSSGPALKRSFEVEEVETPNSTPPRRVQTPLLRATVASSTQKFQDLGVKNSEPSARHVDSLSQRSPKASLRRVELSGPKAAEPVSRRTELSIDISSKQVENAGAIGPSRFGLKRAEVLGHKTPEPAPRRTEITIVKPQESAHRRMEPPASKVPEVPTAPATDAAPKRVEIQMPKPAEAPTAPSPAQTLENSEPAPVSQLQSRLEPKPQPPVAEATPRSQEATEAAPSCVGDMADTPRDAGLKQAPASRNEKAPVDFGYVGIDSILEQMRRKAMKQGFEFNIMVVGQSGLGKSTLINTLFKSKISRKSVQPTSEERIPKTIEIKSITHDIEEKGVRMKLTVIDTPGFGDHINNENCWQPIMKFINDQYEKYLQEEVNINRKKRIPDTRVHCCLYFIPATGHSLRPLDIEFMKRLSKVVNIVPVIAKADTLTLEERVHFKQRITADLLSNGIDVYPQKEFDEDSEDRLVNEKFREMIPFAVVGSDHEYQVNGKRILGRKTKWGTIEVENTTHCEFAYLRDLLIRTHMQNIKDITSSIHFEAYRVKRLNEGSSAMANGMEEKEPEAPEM

[2] = target: T2, HeLa cell extract proteins (Homo sapiens, UniProt P48163)
T2 construct: endogenous in cells; host or cells: HeLa cell extract
T2 sequence (P48163 1-572): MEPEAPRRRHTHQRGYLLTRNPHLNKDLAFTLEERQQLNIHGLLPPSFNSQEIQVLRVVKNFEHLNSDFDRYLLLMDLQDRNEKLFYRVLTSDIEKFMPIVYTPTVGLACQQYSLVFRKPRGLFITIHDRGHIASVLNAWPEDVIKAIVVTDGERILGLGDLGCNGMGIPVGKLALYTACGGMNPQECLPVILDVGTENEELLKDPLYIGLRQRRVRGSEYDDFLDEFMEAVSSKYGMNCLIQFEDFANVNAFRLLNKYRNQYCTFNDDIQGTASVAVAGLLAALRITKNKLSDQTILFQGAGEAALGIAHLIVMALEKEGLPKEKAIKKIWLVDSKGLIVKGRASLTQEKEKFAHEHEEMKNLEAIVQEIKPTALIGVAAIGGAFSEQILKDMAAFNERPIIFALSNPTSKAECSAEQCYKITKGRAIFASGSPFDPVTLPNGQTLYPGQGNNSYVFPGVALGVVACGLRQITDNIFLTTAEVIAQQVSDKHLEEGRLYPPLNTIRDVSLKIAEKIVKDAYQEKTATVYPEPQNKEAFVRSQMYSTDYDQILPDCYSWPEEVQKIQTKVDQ

[3] = target: T3, HeLa cell extract proteins (Homo sapiens, UniProt P60660); details: HeLa; protein MYL6
T3 construct: endogenous in cells; host or cells: HeLa cell extract
T3 sequence (P60660 1-151): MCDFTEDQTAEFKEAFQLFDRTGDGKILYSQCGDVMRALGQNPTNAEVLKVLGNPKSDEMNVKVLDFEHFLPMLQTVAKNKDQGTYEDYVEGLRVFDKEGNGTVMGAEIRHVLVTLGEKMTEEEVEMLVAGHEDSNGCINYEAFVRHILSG

[4] = target: T4, HeLa cell extract proteins (Homo sapiens, UniProt Q5XKP0); details: captured protein C19ORF70; HeLa
T4 construct: endogenous in cells; host or cells: HeLa cell extract
T4 sequence (Q5XKP0 1-118): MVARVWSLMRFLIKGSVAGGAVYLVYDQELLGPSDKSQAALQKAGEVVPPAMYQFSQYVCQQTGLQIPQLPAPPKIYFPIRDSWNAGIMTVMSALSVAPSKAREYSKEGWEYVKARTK

[5] = target: T5, HeLa cell extract proteins (Homo sapiens, UniProt Q8TDH9); details: protein MUTED; HeLa
T5 construct: endogenous in cells; host or cells: HeLa cell extract
T5 sequence (Q8TDH9 1-187): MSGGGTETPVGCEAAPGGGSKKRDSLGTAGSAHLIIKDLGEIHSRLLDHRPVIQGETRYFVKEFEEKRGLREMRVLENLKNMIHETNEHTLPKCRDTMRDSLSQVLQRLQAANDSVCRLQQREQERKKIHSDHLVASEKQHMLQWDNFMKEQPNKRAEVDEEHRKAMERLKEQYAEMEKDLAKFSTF

[6] = target: T6, HeLa cell extract proteins (Homo sapiens, UniProt Q969Y2); details: captured protein GTPBP3; HeLa
T6 construct: endogenous in cells; host or cells: HeLa cell extract
T6 sequence (Q969Y2 21-492): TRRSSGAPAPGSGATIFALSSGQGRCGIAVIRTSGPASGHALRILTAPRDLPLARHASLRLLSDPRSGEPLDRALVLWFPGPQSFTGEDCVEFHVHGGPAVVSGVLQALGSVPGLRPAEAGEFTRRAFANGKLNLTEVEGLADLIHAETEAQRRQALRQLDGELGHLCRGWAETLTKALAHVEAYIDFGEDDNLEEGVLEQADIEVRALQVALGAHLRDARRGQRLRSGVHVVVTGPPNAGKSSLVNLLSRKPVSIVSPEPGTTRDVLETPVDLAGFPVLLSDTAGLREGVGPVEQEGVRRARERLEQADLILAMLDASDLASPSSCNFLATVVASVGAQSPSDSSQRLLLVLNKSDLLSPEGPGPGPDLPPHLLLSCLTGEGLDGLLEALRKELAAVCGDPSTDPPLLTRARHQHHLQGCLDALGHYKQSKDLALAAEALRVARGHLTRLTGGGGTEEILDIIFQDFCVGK

[7] = target: T7, HeLa cell extract proteins (Homo sapiens, UniProt P62495); details: protein ETF1; HeLa
T7 construct: endogenous in cells; host or cells: HeLa cell extract

[8] = target: T8, HeLa cell extract proteins (Homo sapiens, UniProt Q9Y266); details: protein NUDC; HeLa
T8 construct: endogenous in cells; host or cells: HeLa cell extract
T8 sequence (Q9Y266 whole entry): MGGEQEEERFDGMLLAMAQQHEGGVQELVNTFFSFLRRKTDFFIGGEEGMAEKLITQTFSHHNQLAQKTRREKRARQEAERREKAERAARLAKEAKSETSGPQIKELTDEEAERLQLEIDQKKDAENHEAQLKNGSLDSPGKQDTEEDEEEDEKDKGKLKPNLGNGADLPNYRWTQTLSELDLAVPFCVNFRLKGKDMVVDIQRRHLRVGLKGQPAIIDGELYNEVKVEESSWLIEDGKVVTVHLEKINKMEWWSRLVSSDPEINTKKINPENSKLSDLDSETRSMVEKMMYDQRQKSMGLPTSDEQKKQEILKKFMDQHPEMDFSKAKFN

[9] = target: T9, HeLa cell extract proteins (Homo sapiens, UniProt P10155); details: protein TROVE2; HeLa
T9 construct: endogenous in cells; host or cells: HeLa cell extract
T9 sequence (P10155 whole entry): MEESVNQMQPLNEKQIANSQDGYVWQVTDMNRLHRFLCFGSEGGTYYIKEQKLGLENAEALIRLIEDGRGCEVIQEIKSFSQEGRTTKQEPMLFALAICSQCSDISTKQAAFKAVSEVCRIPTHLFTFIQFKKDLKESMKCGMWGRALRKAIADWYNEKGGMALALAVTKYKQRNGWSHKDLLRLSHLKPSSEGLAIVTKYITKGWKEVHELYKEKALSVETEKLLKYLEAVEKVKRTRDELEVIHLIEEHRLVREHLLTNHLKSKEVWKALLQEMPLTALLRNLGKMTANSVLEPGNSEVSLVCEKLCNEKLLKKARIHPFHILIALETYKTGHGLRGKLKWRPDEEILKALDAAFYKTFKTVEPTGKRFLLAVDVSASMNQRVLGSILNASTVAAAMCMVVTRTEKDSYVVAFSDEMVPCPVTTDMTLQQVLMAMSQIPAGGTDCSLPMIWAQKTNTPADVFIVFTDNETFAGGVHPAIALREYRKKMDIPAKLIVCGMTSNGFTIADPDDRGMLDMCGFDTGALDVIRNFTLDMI

[10] = target: T10, HeLa cell extract proteins (Homo sapiens, UniProt P30405); details: protein PPIF; HeLa
T10 construct: endogenous in cells; host or cells: HeLa cell extract
T10 sequence (P30405 30-207): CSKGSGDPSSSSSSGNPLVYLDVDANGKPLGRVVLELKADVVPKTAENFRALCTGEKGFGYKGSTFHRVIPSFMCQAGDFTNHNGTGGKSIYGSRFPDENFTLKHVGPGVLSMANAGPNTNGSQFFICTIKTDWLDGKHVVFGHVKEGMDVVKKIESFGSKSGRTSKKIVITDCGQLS

| Structure (SMILES) | fold changes relative to vehicle control ([1]; protein SEPT9, HeLa) | fold changes relative to vehicle control ([2]; protein ME1, HeLa) | fold changes relative to vehicle control [1] | fold changes relative to vehicle control [2] | fold changes relative to vehicle control [3] | fold changes relative to vehicle control [4] | fold changes relative to vehicle control [5] | fold changes relative to vehicle control [6] | fold changes relative to vehicle control [7] | fold changes relative to vehicle control [8] | fold changes relative to vehicle control [9] | fold changes relative to vehicle control [10] |
| --- | --- | --- | --- | --- | --- | --- | --- | --- | --- | --- | --- | --- |
| Nc1nc2c(c(=O)[nH]1)N(C=O)C(CNc1ccc(C(=O)N[C@@H](CCC(=O)O)C(=O)O)cc1)CN2 (some centres unmarked) [LEU, leucovorin] | 0.93 | 0.79 |  |  |  |  |  |  |  |  |  |  |
| Nc1nc2[nH]cc(CCc3ccc(C(=O)N[C@@H](CCC(=O)O)C(=O)O)cc3)c2c(=O)[nH]1 [PTX, pemetrexed] |  |  | 0.96 | 0.84 |  |  |  |  |  |  |  |  |
| CCCCCCOc1ccc(Cc2cnc(N)nc2N)cc1 [compound 1] |  |  |  |  | 1.14 | 1.16 | 1.09 | 0.4 | 1.08 | 1.23 | 1.05 | 1.23 |
| CCCCCCOc1cccc(Cc2cnc(N)nc2N)c1 [compound 2] |  |  |  |  | 1.3 | 1.14 | 1.65 | 1.05 | 1.92 | 1.92 | 1.49 | 1.79 |
| Nc1nc2cccc(-c3ccccc3)c2n1Cc1ccc(Cl)c(Cl)c1 [compound 3] |  |  |  |  | 1.11 | 1.13 | 0.99 | 0.95 | 1.24 | 1.06 | 1.27 | 0.95 |
| NCCOCCOCC(=O)Nc1nc2ncc(CNc3ccc(C(=O)NC(CCC(=O)O)C(=O)O)cc3)nc2c(=O)[nH]1 (centres unmarked) [compound 6] | 1 | 1.02 |  |  |  |  |  |  |  |  |  |  |
| NCCCNc1ccc(C(=O)NC(CCC(=O)O)C(=O)O)cc1 (centres unmarked) [compound 7] | 0.92 | 0.86 |  |  |  |  |  |  |  |  |  |  |
